Results reported in ChEMBL document CHEMBL1128065, “Stereochemical preferences and requirement for the 3-hydroxyl group in novel anticonvulsant 4-fluorobenzoylamino benzopyrans” (1995).

Key:
Mus musculus = species on record: Mus musculus; assay: Effect on percent increase in seizure threshold was evaluated by maximal electroshock threshold (MEST) test in mouse; format: functional
Rattus norvegicus = assay: Tested for blood pressure fall on i.v. administration at a dose of 10 mg/kg infused over 30 minutes in pentobarbitone-anaesthetized hooded lister rats; format: functional; settings: route intravenous

Compound	Increase (Mus musculus)	BP (Rattus norvegicus)
CC1(C)Oc2ccc(C#N)cc2[C@H](NC(=O)c2ccc(F)cc2)[C@H]1O	41%	
CC1(C)Oc2ccc(C#N)cc2[C@@H](NC(=O)c2ccc(F)cc2)[C@@H]1O	17%	
CC1(C)CC(NC(=O)c2ccc(F)cc2)c2cc(C#N)ccc2O1 (configuration not stated)	5%	
CC1(C)Oc2ccc(C#N)cc2[C@@H](NC(=O)c2ccc(F)cc2)[C@H]1O	0%	36%
CC1(C)Oc2ccc(C#N)cc2[C@H](NC(=O)c2ccc(F)cc2)[C@@H]1O	28%	5%
